The record followed here is ChEMBL document CHEMBL1149145, “Synthesis and selective inhibitory activity of 1-acetyl-3,5-diphenyl-4,5-dihydro-(1H)-pyrazole derivatives against monoamine oxidase” (J Med Chem, 2004).

In assay [1] the target is Amine oxidase [flavin-containing] A (Bos taurus) (UniProt P21398). The assay is described as follows: Inhibition of bovine monoamine oxidase A.
In assay [2] the target is Amine oxidase [flavin-containing] B (Bos taurus) (UniProt P56560). Briefly: Inhibition of bovine monoamine oxidase B.
Chain of Amine oxidase [flavin-containing] B (Bos taurus) (P56560 whole entry, looked up): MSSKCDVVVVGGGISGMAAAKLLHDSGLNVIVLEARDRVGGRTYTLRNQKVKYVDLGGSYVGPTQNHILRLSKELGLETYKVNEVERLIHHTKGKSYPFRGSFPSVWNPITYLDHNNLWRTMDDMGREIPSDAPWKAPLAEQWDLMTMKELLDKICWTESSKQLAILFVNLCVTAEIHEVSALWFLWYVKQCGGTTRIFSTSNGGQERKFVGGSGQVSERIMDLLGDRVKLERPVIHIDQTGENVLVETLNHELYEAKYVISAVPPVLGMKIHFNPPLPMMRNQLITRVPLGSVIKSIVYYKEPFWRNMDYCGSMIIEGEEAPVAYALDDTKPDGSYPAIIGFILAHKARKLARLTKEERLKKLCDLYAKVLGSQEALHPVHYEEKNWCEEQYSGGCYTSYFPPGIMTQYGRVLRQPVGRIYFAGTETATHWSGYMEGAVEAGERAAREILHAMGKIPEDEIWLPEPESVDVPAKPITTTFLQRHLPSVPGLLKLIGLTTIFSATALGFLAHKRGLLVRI
In assay [3] the target is Monoamine oxidase (Bos taurus). The assay is described as follows: Inhibition of bovine monoamine oxidase.
In assay [4] the target is Amine oxidase [flavin-containing] B (Bos taurus) (UniProt P56560). Briefly: Binding affinity was evaluated against bovine monoamino oxidase B.
The target of assay [5] is Amine oxidase [flavin-containing] A (Bos taurus) (UniProt P21398). Briefly: Binding affinity was evaluated against bovine monoamino oxidase A.

In the case of `COc1ccc(C2CC(c3ccc(O)cc3O)=NN2C(C)=O)cc1` (stereo not drawn), the figures for the IC50 in assay [1], in assay [2] and in assay [3] were 9 nM, 83 µM and 10 µM, respectively.
For `CC(=O)N1N=C(c2ccc(O)cc2)CC1c1ccc(C)cc1` (stereo not drawn), the IC50 in assay [1] stood at 100 nM; in assay [2] it was 30 µM; in assay [3], 0.2 µM.
As to `CC(=O)N1N=C(c2ccc(O)cc2)CC1c1cccc(Cl)c1` (stereo not drawn), the figures for the IC50 in assay [1], in assay [2] and in assay [3] were 10 nM, 25 µM and 12 µM, respectively.
As to `CC(=O)N1N=C(c2ccc(O)cc2)CC1c1cccc(C)c1` (stereo not drawn), the IC50 amounted to 8 nM in assay [1], 19 µM in assay [2] and 9.5 µM in assay [3].
Take `CC(=O)N1N=C(c2ccc(O)cc2O)CC1c1ccc(Cl)cc1` (stereo not drawn): the IC50 in assay [1] is 10 nM; in assay [2], 120 µM; in assay [3], 20 µM.
As to `CC(=O)N1N=C(c2ccc(O)cc2O)CC1c1ccc(C)cc1` (stereo not drawn), the IC50 in assay [1] is 9 nM; in assay [2] it was 42 µM; in assay [3], 9.5 µM.
In the case of `CC(=O)N1N=C(c2ccc(O)cc2)CC1c1ccccc1Cl` (stereo not drawn), the IC50 in assay [1] is 8.6 nM; in assay [2], 89 µM; in assay [3] it was 50 µM.
The corresponding values for `COc1ccc(C2CC(c3ccc(O)cc3)=NN2C(C)=O)c(OC)c1` (stereo not drawn) are 10 nM, 20 µM and 10 µM.
In the same order, the values of `COc1ccc(C2CC(c3ccc(O)cc3)=NN2C(C)=O)cc1` (stereo not drawn) are 9 nM, 7.2 µM and 3.6 µM.
The corresponding values for `CC(=O)N1N=C(c2ccc(O)cc2)CC1c1ccc(Cl)cc1` (stereo not drawn) are 100 nM, 40 µM and 40 µM.
With `COc1ccccc1C1CC(c2ccc(O)cc2O)=NN1C(C)=O` (single isomer, unassigned; (+)), the Ki in assay [4] worked out at 270 µM; in assay [5], 7 nM.
On to `COc1ccccc1C1CC(c2ccc(O)cc2)=NN1C(C)=O` (single isomer, unassigned; (-)), for which the Ki in assay [4] was 330 µM; in assay [5], 2 nM.
As for `COc1ccccc1C1CC(c2ccc(O)cc2O)=NN1C(C)=O` (single isomer, unassigned; (-)), the Ki in assay [4] came to 320 µM; in assay [5], 4 nM.
`COc1ccccc1C1CC(c2ccc(O)cc2)=NN1C(C)=O` (stereo in doubt; 6): the IC50 in assay [1] worked out at 8.8 nM; in assay [2], 100 µM; in assay [3] it was 30 µM. Besides, the Ki in assay [4] is 760 µM; in assay [5], 9 nM.
For the compound `COc1ccccc1C1CC(c2ccc(O)cc2O)=NN1C(C)=O` (stereo in doubt; 11), the IC50 in assay [1] worked out at 8 nM; in assay [2], 130 µM; in assay [3], 40 µM. Moreover, the Ki in assay [4] was found to be 600 µM; in assay [5], 8 nM.
Consider `COc1ccccc1C1CC(c2ccc(O)cc2)=NN1C(C)=O` (stereo in doubt; (+)-6), for which the Ki turned out to be 1000 µM in assay [4] and 6 nM in assay [5].

One may read the IC50 as the concentration that inhibits the measured activity by half. Low values mean greater potency in that assay, high ones weaker potency in that assay. As usually defined, the Ki is a dissociation constant, usually derived from enzyme kinetics or from competition with a known ligand. A low value points to a stronger hold on the target.
